Paper PMC11878095, “Interspecies signaling modulates the biosynthesis of antimicrobial secondary metabolites related to biological control activities of Pseudomonas fluorescens 2P24” (Microbiology Spectrum, 2025)

Target: T1, PhlH (2P24_PhlH) (Pseudomonas fluorescens, UniProt Q4JIX5)
T1 construct: purified recombinant His6-tagged PhlH
Experiment: ITC ([…] °C, one-site model); EMSA shows PLT releases PhlH from phlG promoter DNA
Type: binding

T1 sequence (Q4JIX5 entry or part of it): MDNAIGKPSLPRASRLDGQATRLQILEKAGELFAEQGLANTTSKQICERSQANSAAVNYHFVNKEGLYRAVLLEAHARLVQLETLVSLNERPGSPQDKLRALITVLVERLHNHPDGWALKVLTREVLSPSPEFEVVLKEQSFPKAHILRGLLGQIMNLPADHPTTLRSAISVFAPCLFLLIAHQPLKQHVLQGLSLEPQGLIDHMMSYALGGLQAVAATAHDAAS

With `O=C(c1cc(Cl)c(Cl)[nH]1)c1c(O)cccc1O` [PLT, pyoluteorin] the Kd was 1000 nM.
